“Also recorded” adds a separate entry of the source.
Test system: mice with OVA-induced allergic asthma
Assay: Lung hyperreactivity / Penh by whole body plethysmography (Protocol-2)
Format: in vivo, Balb/c mice
Procedure: Male Balb/c SPF mice (26*2 g, 6 week-old) were purchased from the animal house facilities at the Faculty of Medicine (University of Sāo Paulo, Brazil). They were group-housed in a temperature-controlled room at 22° C. with a 12/12-hour light/dark cycle and allowed free access to food and water. The study is in agreement with the Ethical Principles for Animal Research established by the Brazilian College for Animal Experimentation (COBEA). According to the internal laboratory rules, euthanasia will be performed if severe distress related to the test agents developed during the experiment. Mice were sensitized with two subcutaneous injections of 0.2 ml of OVA/Al(OH)3, with an interval of 7 days (Sham animals received the Al(OH)3 suspension in PBS with no OVA). Chicken egg-white ovalbumin (OVA; grade V, cat. A5503, Sigma Chemical Co., St. Louis, Mo.) was dissolved in sterile phosphate buffered saline (PBS) solution (50 μg/ml) and Al(OH)3 was added (at 8 mg/ml). This mix was used to induce the allergic sensitization of the animals by subcutaneous injection. OVA was dissolved at 1% in sterile PBS solution and this solution was nebulized (as the immunological challenges). Seven days after the second sensitization (i.e., 3rd week), the animals were nebulized twice a week with the 1% OVA solution (Sham and untreated OVA groups were nebulized with PBS) during 20 minutes for the next 4 weeks. Thirty minutes before the challenges (OVA nebulization) and daily during the next 4 weeks, mice were intra-nasally treated (10 μl/animal as 5 μl/nostril) with the respective compounds/vehicle. […] Animals were killed at selected time points by overdose of enflurane and BAL and blood collected.
Airway responsiveness in conscious, spontaneously breathing animals was measured at the end of the 6th week (i.e., after 4 weeks OVA challenges+treatments), 24 h after the last OVA/PBS challenge via whole body plethysmography (Buxco Europe Ltd, Winchester, UK). Experiments were carried out in a quiet room by an investigator who was unaware of the nature of treatments. Aerosolized saline (50 μl/mouse during 60 s) and then the muscarinic agonist metacholine (MCh) at increasing concentrations (3.12, 6.25, 12.5 and 25.0 mg/ml in PBS) was nebulized through an inlet of the main chamber for 3 min each to induce bronchoconstriction and readings were taken and averaged for 6 min following each nebulization. After 20 min. the baseline values usually returned at the end of this period. Enhanced pause (Penh) was measured as an indicator of bronchoconstriction and consequent increase of airway resistance as: Penh=[(expiration time/relaxation time)−1][…].

Structure (SMILES): CC(C)(O)c1ccccc1CCC(SCC1(CC(=O)OCC(=O)[C@@]23O[C@H](C4CCCCC4)O[C@@H]2C[C@H]2[C@@H]4CCC5=CC(=O)C=C[C@]5(C)[C@H]4[C@@H](O)C[C@@]23C)CC1)c1cccc(/C=C/c2ccc3ccc(Cl)cc3n2)c1 (some centres unmarked) [montelukast desisobutyryl-ciclesonide ester]
- respiratory function at the lowest dose tested (10 nmol/animal/day, comparable with ciclesonide alone at 100 nmol/animal/day): significant effects
- airway responsiveness, Penh (basal, methacholine Emax and AUC) (10, 30 and 100 nmol/day/animal intranasal, daily for 4 weeks, FIG. 8A-D): Significant reduction of this response; also recorded: significantly reduced

— US12338266B2 (GENETIC S.P.A., priority 2019, dated 2025)
